# According to ChEMBL document CHEMBL1201862, “PubChem BioAssay data set” (2004):
# Active and inactive are the calls of the source.
# What was measured:
# [1] = A cytotoxicity screen of small molecule inhibitors of the PhoP region in Salmonella typhi identified in the primary screen. [Related pubchem assays: 1850, 1864, 1985 ]; assay type: functional
# [2] = target: Cytochrome P450 3A4 (Homo sapiens, UniProt P08684); conditions: Potency;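 note: confirmatory qHTS run detecting inhibitors and substrates of CYP3A4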
# Cytochrome P450 3A4, sequence (P08684 whole entry): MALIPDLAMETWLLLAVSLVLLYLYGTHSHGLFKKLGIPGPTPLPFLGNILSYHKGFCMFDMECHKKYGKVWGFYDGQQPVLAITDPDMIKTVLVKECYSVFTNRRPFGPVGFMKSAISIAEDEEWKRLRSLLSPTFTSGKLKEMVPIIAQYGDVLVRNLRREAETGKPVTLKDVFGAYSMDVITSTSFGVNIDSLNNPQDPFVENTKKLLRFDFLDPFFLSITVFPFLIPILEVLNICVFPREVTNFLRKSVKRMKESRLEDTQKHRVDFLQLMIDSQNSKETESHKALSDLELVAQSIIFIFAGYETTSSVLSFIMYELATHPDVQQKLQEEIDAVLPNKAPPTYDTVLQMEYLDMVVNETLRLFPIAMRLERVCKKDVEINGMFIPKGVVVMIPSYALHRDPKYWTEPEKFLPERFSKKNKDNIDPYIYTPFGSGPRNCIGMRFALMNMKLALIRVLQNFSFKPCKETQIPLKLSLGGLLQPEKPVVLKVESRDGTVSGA
# [3] = HPDE-C7 pancreatic duct cell viability loss – fluorescence, HTS (AID 430); assay type: functional, cell-based; conditions: Homo sapiens
# [4] = Luminescence Cell-Based Dose Retest to Confirm Inhibitors of Cancer Stem Cells. [Related pubchem assays (depositor defined):AID2717, AID2721]; assay type: functional; conditions: Homo sapiens
# [5] = viability loss of HPDE-C7K cells – cell-based, fluorescence, HTS, primary screen (AID 431); assay type: functional; conditions: Homo sapiens
# [6] = target: Procathepsin L (Homo sapiens, UniProt P07711); assay: CTSL1 protease inhibition – biochemical, QFRET, 1536-well, counter-screen for M1/M17 aminopeptidase inhibitor project, dose response (AID 2214)
# Procathepsin L, sequence (P07711 whole entry): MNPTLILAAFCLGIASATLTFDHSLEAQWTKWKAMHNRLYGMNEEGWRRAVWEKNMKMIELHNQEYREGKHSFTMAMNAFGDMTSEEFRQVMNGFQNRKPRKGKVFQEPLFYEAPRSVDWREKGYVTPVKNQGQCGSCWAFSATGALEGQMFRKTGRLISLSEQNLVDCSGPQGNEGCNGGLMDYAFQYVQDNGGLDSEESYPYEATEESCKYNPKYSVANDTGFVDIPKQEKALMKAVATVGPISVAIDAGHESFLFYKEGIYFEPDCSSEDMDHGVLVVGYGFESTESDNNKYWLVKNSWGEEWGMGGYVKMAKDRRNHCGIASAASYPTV
# [7] = target: T1, Leucine aminopeptidase (Plasmodium falciparum 3D7, UniProt Q8IL11); assay: P. falciparum M17LAP inhibitors, primary screen, biochemical, fluorogenic H-Leu-NHMec substrate, 1536-well (AID 1619); assay type: functional
# T1 sequence (Q8IL11 whole entry): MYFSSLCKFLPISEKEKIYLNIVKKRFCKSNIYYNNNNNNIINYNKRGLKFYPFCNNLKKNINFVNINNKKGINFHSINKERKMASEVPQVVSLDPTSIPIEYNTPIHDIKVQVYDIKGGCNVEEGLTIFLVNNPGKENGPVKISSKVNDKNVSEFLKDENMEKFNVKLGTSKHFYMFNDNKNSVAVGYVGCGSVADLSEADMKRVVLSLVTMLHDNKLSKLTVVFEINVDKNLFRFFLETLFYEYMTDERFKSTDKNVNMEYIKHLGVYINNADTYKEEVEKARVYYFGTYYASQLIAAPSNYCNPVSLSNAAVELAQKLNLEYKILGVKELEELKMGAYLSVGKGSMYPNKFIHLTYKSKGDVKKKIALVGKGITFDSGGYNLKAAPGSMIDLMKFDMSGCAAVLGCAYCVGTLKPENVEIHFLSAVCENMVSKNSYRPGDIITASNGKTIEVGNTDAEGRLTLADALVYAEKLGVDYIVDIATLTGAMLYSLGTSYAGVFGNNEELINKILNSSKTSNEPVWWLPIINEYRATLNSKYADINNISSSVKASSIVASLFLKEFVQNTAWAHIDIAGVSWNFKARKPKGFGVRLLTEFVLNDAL
# [8] = target: T2, Aspartyl aminopeptidase (Plasmodium falciparum 3D7, UniProt Q8I2J3); assay: Counterscreen for inhibitors of M1 and M17 aminopeptidases: QFRET-based biochemical high throughput dose response assay for inhibitors of the Plasmodium falciparum M18 Aspartyl Aminopeptidase (PFM18AAP). [Related PubChem assays: 1619 (Screening assay (M17LAP inhibitors).), 1445 (Screening assay (M1AAP inhibitors).)]
# T2 sequence (Q8I2J3 whole entry): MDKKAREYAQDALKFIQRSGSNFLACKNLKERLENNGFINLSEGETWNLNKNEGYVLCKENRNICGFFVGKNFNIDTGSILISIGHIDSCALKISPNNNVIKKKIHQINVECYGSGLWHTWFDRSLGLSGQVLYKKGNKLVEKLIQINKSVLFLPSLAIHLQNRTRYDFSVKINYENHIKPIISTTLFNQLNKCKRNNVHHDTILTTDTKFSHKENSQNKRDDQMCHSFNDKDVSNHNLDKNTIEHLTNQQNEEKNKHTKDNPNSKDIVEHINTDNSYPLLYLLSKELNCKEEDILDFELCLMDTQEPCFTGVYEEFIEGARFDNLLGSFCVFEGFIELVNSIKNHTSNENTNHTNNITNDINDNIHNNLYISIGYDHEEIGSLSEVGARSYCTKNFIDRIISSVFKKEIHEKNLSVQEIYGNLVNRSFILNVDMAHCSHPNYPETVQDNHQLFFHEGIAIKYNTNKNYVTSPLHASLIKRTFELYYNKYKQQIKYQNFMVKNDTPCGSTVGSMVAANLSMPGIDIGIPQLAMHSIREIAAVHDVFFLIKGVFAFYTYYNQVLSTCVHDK
# [9] = target: T3, Alkaline phosphatase, tissue-nonspecific isozyme (Homo sapiens, UniProt P05186); assay: potency against alkaline phosphatase TNAP – biochemical, luminescent, dose response, SAR follow-up (AID 1056)
# T3 sequence (P05186 whole entry): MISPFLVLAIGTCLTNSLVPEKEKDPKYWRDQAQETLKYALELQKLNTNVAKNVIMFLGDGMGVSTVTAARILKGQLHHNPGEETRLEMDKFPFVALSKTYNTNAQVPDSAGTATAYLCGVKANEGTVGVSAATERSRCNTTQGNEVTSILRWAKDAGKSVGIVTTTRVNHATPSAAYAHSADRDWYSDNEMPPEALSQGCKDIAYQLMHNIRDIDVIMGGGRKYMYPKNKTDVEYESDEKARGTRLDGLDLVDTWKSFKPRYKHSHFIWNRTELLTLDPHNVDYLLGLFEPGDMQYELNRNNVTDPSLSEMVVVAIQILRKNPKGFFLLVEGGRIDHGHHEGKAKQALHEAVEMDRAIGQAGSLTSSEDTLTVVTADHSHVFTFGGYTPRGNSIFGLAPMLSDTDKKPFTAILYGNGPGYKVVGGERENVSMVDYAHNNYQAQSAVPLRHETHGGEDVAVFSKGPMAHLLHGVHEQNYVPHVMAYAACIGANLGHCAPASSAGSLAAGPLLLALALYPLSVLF
# [10] = target: Alkaline phosphatase, placental type (Homo sapiens, UniProt P05187); assay: human placental alkaline phosphatase inhibition – biochemical, luminescence, confirmation (AID 1512); assay type: functional
# Alkaline phosphatase, placental type, sequence (P05187 whole entry): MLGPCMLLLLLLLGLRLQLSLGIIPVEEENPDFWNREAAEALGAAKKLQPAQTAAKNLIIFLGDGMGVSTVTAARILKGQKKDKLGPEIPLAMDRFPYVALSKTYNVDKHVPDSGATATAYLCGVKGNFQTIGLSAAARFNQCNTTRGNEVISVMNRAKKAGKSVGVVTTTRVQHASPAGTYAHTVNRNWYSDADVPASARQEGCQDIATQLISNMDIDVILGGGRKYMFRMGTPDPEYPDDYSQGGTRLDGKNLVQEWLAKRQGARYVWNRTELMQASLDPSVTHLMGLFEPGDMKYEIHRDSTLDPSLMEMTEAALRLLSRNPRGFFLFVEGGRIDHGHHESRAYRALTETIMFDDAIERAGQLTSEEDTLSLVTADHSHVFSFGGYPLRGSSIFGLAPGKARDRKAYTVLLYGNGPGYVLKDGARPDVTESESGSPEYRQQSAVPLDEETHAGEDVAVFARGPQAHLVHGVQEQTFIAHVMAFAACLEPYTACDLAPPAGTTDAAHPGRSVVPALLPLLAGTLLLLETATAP
# [11] = target: Glyceraldehyde-3-phosphate dehydrogenase (Homo sapiens, UniProt P04406)
# Glyceraldehyde-3-phosphate dehydrogenase, sequence (P04406 whole entry): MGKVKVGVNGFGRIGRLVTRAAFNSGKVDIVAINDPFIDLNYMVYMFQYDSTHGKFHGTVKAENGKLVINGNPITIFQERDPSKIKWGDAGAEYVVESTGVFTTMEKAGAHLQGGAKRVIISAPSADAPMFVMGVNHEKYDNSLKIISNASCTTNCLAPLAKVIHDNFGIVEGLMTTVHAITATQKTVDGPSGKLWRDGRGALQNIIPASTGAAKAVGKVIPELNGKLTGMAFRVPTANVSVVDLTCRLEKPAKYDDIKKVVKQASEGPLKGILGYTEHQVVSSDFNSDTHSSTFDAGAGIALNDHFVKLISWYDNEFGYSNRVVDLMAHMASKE
# [12] = target: T4, Replicative DNA helicase DnaB (Mycobacterium tuberculosis, UniProt P9WMR3); assay: DnaB intein splicing inhibitors, dose response, biochemical, cell-free fluorescence (AID 449749); assay type: functional
# T4 sequence (P9WMR3 whole entry): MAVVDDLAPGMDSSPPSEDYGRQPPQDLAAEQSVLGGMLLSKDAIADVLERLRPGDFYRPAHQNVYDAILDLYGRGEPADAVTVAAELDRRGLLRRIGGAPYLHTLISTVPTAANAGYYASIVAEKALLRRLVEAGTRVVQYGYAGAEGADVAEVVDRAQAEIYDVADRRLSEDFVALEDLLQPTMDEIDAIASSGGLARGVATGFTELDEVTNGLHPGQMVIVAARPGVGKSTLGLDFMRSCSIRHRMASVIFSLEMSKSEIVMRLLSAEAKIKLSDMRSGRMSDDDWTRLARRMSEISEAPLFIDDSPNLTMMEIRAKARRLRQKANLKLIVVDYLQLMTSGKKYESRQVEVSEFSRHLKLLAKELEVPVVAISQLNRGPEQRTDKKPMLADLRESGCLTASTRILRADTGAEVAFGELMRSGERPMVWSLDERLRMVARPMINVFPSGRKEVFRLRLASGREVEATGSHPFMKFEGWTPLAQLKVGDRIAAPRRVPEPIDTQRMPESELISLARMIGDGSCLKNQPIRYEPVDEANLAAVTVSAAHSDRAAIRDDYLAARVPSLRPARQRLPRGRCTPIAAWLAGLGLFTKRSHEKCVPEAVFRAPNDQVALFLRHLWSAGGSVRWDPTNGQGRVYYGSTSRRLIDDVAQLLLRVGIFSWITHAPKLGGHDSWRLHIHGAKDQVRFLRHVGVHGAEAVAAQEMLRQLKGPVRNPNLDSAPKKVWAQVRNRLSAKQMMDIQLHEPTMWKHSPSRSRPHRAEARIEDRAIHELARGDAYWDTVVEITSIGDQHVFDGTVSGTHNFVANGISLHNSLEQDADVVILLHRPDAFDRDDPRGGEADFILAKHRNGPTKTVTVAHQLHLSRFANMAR
# [13] = target: T5, Protein RecA (Mycobacterium tuberculosis, UniProt P9WHJ3); assay: Fluorescence Cell-Free Homogeneous Dose Retest to Identify Inhibitors of RecA-Intein Splicing Activity. [Related pubchem assays (depositor defined):AID2097, AID2223, AID489010, AID492950]; assay type: functional
# T5 sequence (P9WHJ3 whole entry): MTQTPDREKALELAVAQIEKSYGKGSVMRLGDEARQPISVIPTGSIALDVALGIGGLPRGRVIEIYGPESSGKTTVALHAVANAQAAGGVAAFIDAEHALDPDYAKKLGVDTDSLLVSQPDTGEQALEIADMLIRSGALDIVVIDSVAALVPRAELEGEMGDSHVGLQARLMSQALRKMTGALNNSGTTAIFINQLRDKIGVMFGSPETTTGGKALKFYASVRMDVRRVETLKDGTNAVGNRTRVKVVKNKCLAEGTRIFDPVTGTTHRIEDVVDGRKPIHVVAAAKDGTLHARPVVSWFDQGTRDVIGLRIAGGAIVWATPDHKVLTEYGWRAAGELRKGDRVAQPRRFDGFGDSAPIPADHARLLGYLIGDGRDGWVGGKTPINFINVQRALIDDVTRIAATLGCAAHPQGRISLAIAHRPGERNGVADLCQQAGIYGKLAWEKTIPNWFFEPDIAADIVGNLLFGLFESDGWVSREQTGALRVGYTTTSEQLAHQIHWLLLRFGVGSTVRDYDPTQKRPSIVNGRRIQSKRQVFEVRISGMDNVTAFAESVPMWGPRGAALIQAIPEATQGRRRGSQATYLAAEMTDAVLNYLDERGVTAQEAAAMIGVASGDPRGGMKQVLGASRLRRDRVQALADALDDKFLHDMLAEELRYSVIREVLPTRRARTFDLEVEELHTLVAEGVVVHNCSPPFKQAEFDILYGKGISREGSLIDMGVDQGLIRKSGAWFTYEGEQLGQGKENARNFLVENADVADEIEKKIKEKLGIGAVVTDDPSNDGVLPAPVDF
# [14] = test system: Streptococcus sp. 'group A'; assay: Streptococcus pyogenes SK(-)GAS viability under kanamycin – luminescence, BacTiterGlo, confirmation, counter-screen for streptokinase expression inhibitor project, dose response (AID 1900); assay type: functional, organism-based
# [15] = test system: Streptococcus; assay: GAS UMAA2166 growth inhibition – luminescence, BacTiterGlo, counter-screen for streptokinase expression inhibitor project, dose response (AID 1915); assay type: functional, organism-based;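 note: potency for reduction of bacterial viability or growth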
# [16] = cells; assay type: functional
# [17] = NIH-3T3 fibroblast cytotoxicity, dose response, cytotoxicity control, cell-based, fluorescence, Alamar Blue, secondary assay (AID 2327); assay type: functional;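 note: NIH-3T3 mouse fibroblasts cultured with fluconazole at 8 µg/mL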
# [18] = fluconazole-exposed Candida albicans growth modulators – fluorescence, retest, confirmation (AID 2467); assay type: functional, cell-based
# [19] = target: Cytochrome P450 2C9 (Homo sapiens, UniProt P11712)
# Cytochrome P450 2C9, sequence (P11712 whole entry): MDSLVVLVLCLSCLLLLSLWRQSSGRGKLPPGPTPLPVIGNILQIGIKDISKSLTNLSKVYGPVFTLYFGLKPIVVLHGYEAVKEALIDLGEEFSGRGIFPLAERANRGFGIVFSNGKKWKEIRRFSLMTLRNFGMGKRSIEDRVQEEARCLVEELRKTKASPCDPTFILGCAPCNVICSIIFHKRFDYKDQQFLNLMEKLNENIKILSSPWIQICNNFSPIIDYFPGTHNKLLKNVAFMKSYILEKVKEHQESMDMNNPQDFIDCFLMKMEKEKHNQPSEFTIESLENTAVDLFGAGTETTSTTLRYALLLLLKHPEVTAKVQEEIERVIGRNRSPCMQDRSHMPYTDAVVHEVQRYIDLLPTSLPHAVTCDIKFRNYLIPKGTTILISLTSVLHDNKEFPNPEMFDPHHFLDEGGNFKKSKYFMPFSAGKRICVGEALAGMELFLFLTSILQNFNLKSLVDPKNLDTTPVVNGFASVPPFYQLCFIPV
# [20] = target: Polyadenylate-binding protein 1 (Homo sapiens, UniProt P11940); assay: blockers of PABP interaction with poly(A) – biochemical, fluorescence polarization, […] (AID 2014)
# Polyadenylate-binding protein 1, sequence (P11940 whole entry): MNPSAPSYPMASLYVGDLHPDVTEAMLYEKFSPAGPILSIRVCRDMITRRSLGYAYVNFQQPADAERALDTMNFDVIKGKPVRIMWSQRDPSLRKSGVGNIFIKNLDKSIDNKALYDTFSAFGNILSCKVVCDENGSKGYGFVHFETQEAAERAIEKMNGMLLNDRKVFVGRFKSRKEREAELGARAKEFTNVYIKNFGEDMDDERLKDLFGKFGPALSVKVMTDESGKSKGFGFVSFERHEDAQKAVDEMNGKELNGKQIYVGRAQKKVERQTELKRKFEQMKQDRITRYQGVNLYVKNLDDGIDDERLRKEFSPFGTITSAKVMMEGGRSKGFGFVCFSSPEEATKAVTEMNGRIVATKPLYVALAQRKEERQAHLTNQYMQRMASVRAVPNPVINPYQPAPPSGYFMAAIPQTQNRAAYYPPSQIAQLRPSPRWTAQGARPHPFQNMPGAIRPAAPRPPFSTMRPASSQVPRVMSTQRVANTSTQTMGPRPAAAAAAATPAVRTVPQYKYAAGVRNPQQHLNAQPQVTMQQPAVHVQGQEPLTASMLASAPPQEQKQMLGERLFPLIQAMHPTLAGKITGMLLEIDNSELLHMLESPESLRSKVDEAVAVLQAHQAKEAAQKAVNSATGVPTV
# [21] = target: Cytochrome P450 2C19 (Homo sapiens, UniProt P33261); assay: Cytochrome panel assay with activity outcomes. Panel member name: p450-cyp2c19 Compounds with AC50 equal or less than 10 uM are considered active; assay type: functional; conditions: read-out: AC50
# Cytochrome P450 2C19, sequence (P33261 whole entry): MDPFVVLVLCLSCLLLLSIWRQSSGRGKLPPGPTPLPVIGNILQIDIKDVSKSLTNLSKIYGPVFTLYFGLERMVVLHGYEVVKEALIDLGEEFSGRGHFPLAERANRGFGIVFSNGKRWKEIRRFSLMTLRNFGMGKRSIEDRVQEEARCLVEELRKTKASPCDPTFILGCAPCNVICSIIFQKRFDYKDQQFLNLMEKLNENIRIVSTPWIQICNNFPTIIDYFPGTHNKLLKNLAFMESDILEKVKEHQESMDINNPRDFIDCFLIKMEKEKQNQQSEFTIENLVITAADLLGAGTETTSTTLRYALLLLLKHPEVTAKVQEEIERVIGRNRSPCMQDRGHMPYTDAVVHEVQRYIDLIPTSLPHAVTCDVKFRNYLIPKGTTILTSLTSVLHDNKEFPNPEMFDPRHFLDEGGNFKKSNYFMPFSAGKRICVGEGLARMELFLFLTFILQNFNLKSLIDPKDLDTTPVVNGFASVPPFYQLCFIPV
# [22] = target: Cytochrome P450 2D6 (Homo sapiens, UniProt P10635);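 note: CYP2D6 member of a cytochrome P450 panel assay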
# Cytochrome P450 2D6, sequence (P10635 whole entry): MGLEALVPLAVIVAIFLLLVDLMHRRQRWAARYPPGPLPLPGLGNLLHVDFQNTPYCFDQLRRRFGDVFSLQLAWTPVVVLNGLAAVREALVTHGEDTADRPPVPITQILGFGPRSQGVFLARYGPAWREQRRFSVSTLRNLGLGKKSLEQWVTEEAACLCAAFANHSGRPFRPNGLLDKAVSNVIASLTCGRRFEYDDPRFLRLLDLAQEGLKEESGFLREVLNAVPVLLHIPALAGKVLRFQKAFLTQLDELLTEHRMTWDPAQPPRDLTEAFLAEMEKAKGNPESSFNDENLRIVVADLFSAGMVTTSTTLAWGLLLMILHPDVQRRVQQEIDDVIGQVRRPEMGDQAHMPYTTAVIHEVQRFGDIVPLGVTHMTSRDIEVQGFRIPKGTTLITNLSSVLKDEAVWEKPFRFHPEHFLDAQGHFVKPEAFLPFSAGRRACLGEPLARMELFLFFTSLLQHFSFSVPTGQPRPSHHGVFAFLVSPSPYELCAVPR
# [23] = target: Eukaryotic translation initiation factor 4H (Homo sapiens, UniProt Q15056); assay: eIF4H binding inhibition – biochemical, uHTS, fluorescence polarization, translation initiation inhibitor project, primary screen (AID 2012)
compound,measurement,setting,value
CCOC(=O)Cc1csc(NC(=O)c2ccc(S(=O)(=O)N3CCCC3)cc2)n1,EC50,[1],> 50 µM (active)
CC(=O)OCC1OC(C#Cc2ccc(Br)cc2)C=CC1OC(C)=O (stereo unspecified),AC50,[2],3.16 µM (inconclusive)
COc1cc(CN2CCN(c3cccc(Cl)c3)CC2)cc(OC)c1OC,EC50,[3],6.14 µM (active)
same,AC50,[4],1.45 µM (active)
same,EC50,[5],5.95 µM (active)
COC(=O)c1c(NC(=O)C2CCCCC2C(=O)O)sc2c1CCCCC2 (stereo unspecified),IC50,[6],> 59.6 µM (not active)
same,IC50,[7],1.49 µM (active)
same,IC50,[8],> 73.5 µM (not active)
CCCC(=O)N1CCN(c2ccc(NC(=S)NC(=O)c3cccc(C)c3)cc2)CC1,EC50,[1],> 50 µM (active)
COc1ccccc1-c1nnc(SCc2ccc(C(=O)O)cc2)[nH]1,IC50,[9],16.3 µM (active)
same,IC50,[10],> 100 µM (inactive)
same,IC50,[11],> 100 µM (not active)
CSc1n[nH]c(NC(C)=O)n1,IC50,[9],> 10 µM (inactive)
same,IC50,[11],> 10 µM (inconclusive)
O=S(=O)(Nc1ccncn1)c1cc(Cl)ccc1F,IC50,[9],> 100 µM (inactive)
same,IC50,[11],> 100 µM (not active)
O=C(O)C1CC=CCC1C(=O)Nc1ccc(Oc2ccc(Cl)cc2)cc1 (stereo unspecified),IC50,[6],> 59.6 µM (not active)
same,IC50,[7],1.02 µM (active)
same,IC50,[8],> 73.5 µM (not active)
O=C(CN1C2=NCCN2c2ccccc21)c1ccc2c(c1)OCO2,EC50,[1],> 50 µM (active)
O=C(O)CCCCCNC(=O)Nc1ccc2c(c1)OCCO2,IC50,[6],> 59.6 µM (not active)
same,IC50,[7],5.51 µM (active)
same,IC50,[8],> 73.5 µM (not active)
Oc1cc(-c2cccc3ccccc23)[nH]n1,AC50,[12],2.39 µM (active)
same,IC50,[6],> 59.6 µM (not active)
same,IC50,[7],2.9 µM (active)
same,EC50,[13],834 nM (active)
same,IC50,[8],> 73.5 µM (not active)
same,IC50,[9],3.87 µM (active)
same,IC50,[10],> 10 µM (inactive)
same,IC50,[11],> 100 µM (not active)
N#Cc1c(NC(=O)CSc2n[nH]c(Cc3ccccc3)n2)oc(-c2ccccc2)c1-c1ccccc1,EC50,[14],4.97 µM (active)
same,EC50,[3],4.13 µM (active)
same,EC50,[15],36.5 µM (active)
same,EC50,[5],5.24 µM (active)
CCCCCCCC(=O)N/N=C/c1ccc([N+](=O)[O-])o1,IC50,[16],2.63 µM (active)
same,EC50,[17],> 160 µM (inactive)
same,EC50,[1],> 50 µM (active)
same,EC50,[18],2.88 µM (active)
CC1=C(C(=O)OCc2ccccc2)C(c2ccccc2)NC(=O)N1CCCCCC(=O)O (stereo unspecified),AC50,[19],25.1 µM (inconclusive)
same,IC50,[20],29.9 µM (active)
same,AC50,[21],39.8 µM (inconclusive)
same,AC50,[22],39.8 µM (inconclusive)
same,IC50,[23],78.5 µM (active)
Cc1cc(C)c(N)cc1C,AC50,[2],39.8 µM (inconclusive)
O=c1c(-c2cc(O)c(O)c(O)c2)coc2cc(O)c(O)c(O)c12 [IRIGENOL],AC50,[2],25.1 µM (inconclusive)
